Measured values as given in patent publication US20210285955A1, “METHODS AND REAGENTS FOR ANALYZING PROTEIN-PROTEIN INTERFACES” (Revolution Medicines, Inc., priority 2017, published 2021).

What was measured:
Assay type in all cases: binding
KRASGTP/S39C lite = molecular target: T1, KRASGTP/S39C lite (Homo sapiens, UniProt P01116, C118S/C51S/C80L/G12V/S39C); test: Conjugate formation (cross-linking) assessed by SDS-PAGE
T1 construct: KRASGTP/S39C lite (in house; residues 1-169 containing G12V/S39C/C51S/C80L/C118S); made in house
Description: General Protocol: This protocol describes a method for the formation of target protein-compound conjugates.
(§1) Experimental Protocol: A 1:2 molar ratio of target protein and compound are mixed together in 12.5 mM HEPES pH 7.4, 75 mM NaCl buffer containing 2% DMSO. The reaction is incubated at 37° C. for 30 min, followed by overnight incubation at room temperature. Cross-linking efficiency is assessed by SDS-PAGE gel. Conjugates migrate slower than non-cross-linked target protein. For thiol reactive compounds, the Cys specific attachment of the compound to the target protein can be further confirmed by SDS-PAGE after the addition of 100 mM DTT to the reaction mixture, which reduces the conjugate back into its components.
Experimental Protocol: A 1:2 molar ratio of KRASGTP/S39C lite and C2-FK506 are mixed together in 12.5 mM HEPES pH 7.4, 75 mM NaCl buffer containing 2% DMSO. The reaction is incubated at 37° C. for 30 min, followed by overnight incubation at room temperature. Cross-linking efficiency is assessed by SDS-PAGE gel. Attachment of C2-FK506 to Cysteine 39 on KRASGTP/S39C lite is also assessed by incubation of the reaction mixture with 100 mM DTT.

[1] = molecular target: T2, KRASGTP/S39C lite and FKBP12 (Homo sapiens, UniProt P01116+P62942, C118S/C51S/C80L/G12V/S39C); test: Ternary complex formation by SEC and SDS-PAGE; conditions: 1:2:2 compound:FKBP12:KRAS, SEC profile and SDS-PAGE of elution peaks
T2 construct: KRASGTP/S39C lite (in house; residues 1-169 containing G12V/S39C/C51S/C80L/C118S); made in house
Description: (§2) A 1:2:2 molar ratio of compound, presenter protein, and target protein are mixed together in 12.5 mM HEPES pH 7.4, 75 mM NaCl buffer containing 2% DMSO. The reaction is incubated at 37° C. for 30 min, followed by overnight incubation at room temperature. Pure complex is isolated by Size Exclusion Chromatography (SEC) purification. The reaction mixture is directly injected on a Superdex 75 column (CV 120 mL) pre-equilibrated with buffer containing 12.5 mM HEPES pH 7.4, 75 mM NaCl. Complex elutes at a higher molecular weight than unreacted target protein and presenter protein. To confirm presence of complex in the elution peak, samples are assessed by SDS-PAGE.
Experimental Protocol: A 1:2:2 molar ratio of C2-Holt, FKBP12, and KRASGTP/S39C lite are mixed together in 12.5 mM HEPES pH 7.4, 75 mM NaCl buffer containing 2% DMSO. The reaction is incubated at 37° C. for 30 min, followed by overnight incubation at room temperature. Pure complex is isolated by Size Exclusion Chromatography (SEC) purification. The reaction mixture is directly injected on a Superdex 75 column (CV 120 mL) pre-equilibrated with buffer containing 12.5 mM HEPES pH 7.4, 75 mM NaCl. […] To confirm the presence of KRASGTP/S39C lite and FKBP12 in the elution peak, samples are also assessed by SDS-PAGE.

KRASGTP/G12C [2] = molecular target: T3, KRASGTP/G12C (Homo sapiens, UniProt P01116+P62942, G12C); test: Cross-linking gel shift assay (12% SDS-PAGE); conditions: 60 μM KRAS, 180 μM FKBP12, 180 μM ligand, quenched by MMTS
T3 construct: KRASGTP/G12C (in-house, residues 1-169); made in house
Description: In parallel to mass spectrometry analysis, cross-linking reactions with C3 or […] were subjected to gel shift assay using 12% SDS-PAGE in the presence or absence of FKBP12 at the same experimental condition described above except that cross-linking reactions were set up at higher concentrations (60 μM KRAS, 180 μM FKBP12, and 180 μM C3 or […]) and they were quenched by MMTS to terminate the reaction.

[3] = molecular target: T4, PTP1BS187C lite and FKBP12 (Homo sapiens, UniProt P18031+P62942, C121S/C32S/C92V/S187C); test: Ternary complex formation by SEC and SDS-PAGE; conditions: 1:3:3 compound:FKBP12:PTP1B, SEC profile and SDS-PAGE of elution peaks
T4 construct: (in house; residues 1-293 containing C32S/C92V/C121S/S187C); made in house
T4 sequence (P18031 1-293 C32S/C92V/C121S/S187C limits assumed): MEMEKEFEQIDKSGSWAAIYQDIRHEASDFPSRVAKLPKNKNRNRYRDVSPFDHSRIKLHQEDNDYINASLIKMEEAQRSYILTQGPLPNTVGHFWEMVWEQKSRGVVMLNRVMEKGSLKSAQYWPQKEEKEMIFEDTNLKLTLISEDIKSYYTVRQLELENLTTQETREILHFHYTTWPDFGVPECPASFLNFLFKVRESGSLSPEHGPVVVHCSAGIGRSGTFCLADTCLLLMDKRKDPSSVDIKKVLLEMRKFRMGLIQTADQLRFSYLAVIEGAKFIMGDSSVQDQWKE
T4 sequence (P62942 whole entry, the tested form may be a part): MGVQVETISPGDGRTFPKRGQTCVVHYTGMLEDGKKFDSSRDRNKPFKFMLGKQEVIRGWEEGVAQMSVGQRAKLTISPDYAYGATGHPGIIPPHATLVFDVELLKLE
Description: as §2
Equipment: Mini-PROTEAN TGX Gel (Bio-Rad), Superdex 75 (GE Healthcare, CV 120 mL) Experimental Protocol: A 1:3:3 molar ratio of C3SLF, FKBP12, and PTPIBswc lite are mixed together in 12.5 mM HEPES pH 7.4, 75 mM NaCl buffer containing 4% DMSO. The reaction is incubated at 37° C. for 30 min, followed by overnight incubation at room temperature. Pure complex is isolated by Size Exclusion Chromatography (SEC) purification. The reaction mixture is directly injected on a Superdex 75 column (CV 120 mL) pre-equilibrated with buffer containing 12.5 mM HEPES pH 7.4, 75 mM NaCl. […] To confirm the presence of PTP1BS187C lite and FKBP12 in the elution peak, samples are also assessed by SDS-PAGE. […]

KRASGTP/G12C [4] = molecular target: T3, KRASGTP/G12C; test: Presenter dependency of disulfide cross-linking by mass spectrometry; conditions: 2 μM KRAS, 10 μM ligand, 4 hours room temperature, MS
Description: This protocol describes methods to analyzing cross-linking efficiency using mass spectrometry and gel shift assay in effort to assess the presenter dependency of conjugate formation.
Experimental protocol: In order to follow the kinetics of disulfide crosslinking reactions, Agilent 6230 TOF-LC/MS and Agilent 1260 HPLC instruments employing a AdvanceBio RP-mAb C4 column (2.1×100 mm, 3.5 μm) and equipped with an auto-sampler were used. HPLC grade acetonitrile and water (each containing 1.0 mM ammonium formate and 1% formic acid by volume) were used as mobile phase with the following ramp: 0.6 ml/min flow rate, water:acetonitrile=95:5 from 0.0 to 13.0 min ramping to water:acetonitrile=5:95 from 13.0 to 17.0 min. Total time=17.0 min.
All crosslinking reactions were performed in 1.5 mL amber colored glass vials equipped with 0.5 mL glass inserts. A water-soluble peptide (SEQ ID NO: 1: […]) was employed as an internal standard. Although the actual sequence of the internal standard is inconsequential, choice of amino acid residues were critical to avoid interference in the crosslinking assays. […] All reactions and standard solutions were prepared in HEPES (pH 7.4, 1.0 mM MgCl2) buffer.
Prior to every reaction, a standard curve was obtained for the individual components using a series of standard solutions (an example of standard curve analysis for FKBP12 is shown in Table 3 below). Using the data from standard curve, μmol of protein samples were plotted against the ratio of areas (sample:std) and a linear fit (y=mx+c) was employed to obtain the slope and intercept. The value of slope and intercept involved in these standard curves were accounted for during evaluation of the substrate and product concentration before and during the course of the reaction. For every substrate/product, an initial injection was followed up by a blank injection to verify presence of any residual protein/reagents. Based on this analysis the sequence of auto-sampler can be adjusted to included appropriate number of blank injections for removal of residual components, if any. The MS spectra were analyzed using Agilent MassHunter v B.07.0 software.
In a representative experiment to assess the presenter dependency of ligand cross-linking on the target protein, KRASGTP/G12C and either C3 or C4SLF ligand were incubated in the presence or absence of FKBP12 at concentrations of 2 μM KRAS, 10 μM FKBP12, 10 μM C3 or C4SLF for 4 hours at room temperature in 12.5 mM HEPES pH 7.4, 75 mM NaCl, 1 mM MgCl2, 3% DMSO. Analysis of the amount of KRAS undergoing disulfide cross-linking with the ligand using the method above.

[5] = molecular target: T5, KRASGDP/S39C lite and CypAC52S (Homo sapiens, UniProt P01116+P62937, C118S/C51S/C52S/C80L/G12V/S39C); test: Ternary complex formation by SEC and SDS-PAGE; conditions: 1:2:2 compound:CypAC52S:KRAS, SEC profile and SDS-PAGE of elution peaks
T5 construct: KRASGDP/S39C lite (in house; residues 1-169 containing G12V/S39C/C51S/C80L/C118S); made in house
Description: as §2
Equipment: Mini-PROTEAN TGX Gel (Bio-Rad), Superdex 75 (GE Healthcare, CV 120 mL) Experimental Protocol: A 1:2:2 molar ratio of SFAC4DS, CypAC52S, and KRASGDP/S39C lite are mixed together in 12.5 mM HEPES pH 7.4, 75 mM NaCl buffer containing 2% DMSO. The reaction is incubated at 37° C. for 30 min, followed by overnight incubation at room temperature. Pure complex is isolated by Size Exclusion Chromatography (SEC) purification. The reaction mixture is directly injected on a Superdex 75 column (CV 120 mL) pre-equilibrated with buffer containing 12.5 mM HEPES pH 7.4, 75 mM NaCl. […] To confirm the presence of KRASGDP/S39C lite and CypAC52S in the elution peak, samples are also assessed by SDS-PAGE.

KRASGTP/G12C lite = molecular target: T6, KRASGTP/G12C lite (Homo sapiens, UniProt P01116, C118S/C51S/C80L/G12C); test: Conjugate formation (cross-linking) assessed by SDS-PAGE; conditions: 1:2 molar ratio protein:compound, 37° C. 30 min then overnight room temperature
T6 construct: KRASGTP/G12C lite (in house; residues 1-169 containing G12C/C51S/C80L/C118S); made in house
Description: as §1
(§3) Experimental Protocol: A 1:2 molar ratio of KRASGTP/G12C lite and SFAX9DS are mixed together in 12.5 mM HEPES pH 7.4, 75 mM NaCl buffer containing 2% DMSO. The reaction is incubated at 37° C. for 30 min, followed by overnight incubation at room temperature. Cross-linking efficiency is assessed by SDS-PAGE gel. […] Cysteine 52 as a reactive Cysteine on CypA and was mutated to Serine to abrogate presenter cross-linking.

Wild-type CypA = Wild-type CypA (Homo sapiens, UniProt P62937); test: Presenter cross-linking assessed by SDS-PAGE
Wild-type CypA, sequence (P62937 whole entry): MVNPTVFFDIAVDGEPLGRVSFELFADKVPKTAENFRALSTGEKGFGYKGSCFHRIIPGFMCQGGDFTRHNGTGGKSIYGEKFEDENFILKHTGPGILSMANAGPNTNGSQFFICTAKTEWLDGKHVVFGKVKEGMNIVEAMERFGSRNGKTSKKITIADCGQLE
Description: as §3

CypAC52S = molecular target: T7, CypAC52S (Homo sapiens, UniProt P62937, C52S); test: Presenter cross-linking assessed by SDS-PAGE; conditions: CypA with Cysteine 52 mutated to Serine
T7 construct: made in house
T7 sequence (P62937 whole entry C52S): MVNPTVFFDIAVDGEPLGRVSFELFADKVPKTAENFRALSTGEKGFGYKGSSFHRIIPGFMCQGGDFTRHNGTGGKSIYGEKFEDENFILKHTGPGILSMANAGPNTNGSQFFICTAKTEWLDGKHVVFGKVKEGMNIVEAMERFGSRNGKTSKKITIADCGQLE
Description: as §3

## CO[C@H]1C[C@@H](C)C/C(C)=C/[C@@H](CCCC(=O)NCCSSc2ccccn2)C(=O)C[C@H](O)[C@@H](C)[C@@H](/C(C)=C/[C@@H]2CC[C@@H](O)[C@H](OC)C2)OC(=O)[C@@H]2CCCCN2C(=O)C(=O)[C@]2(O)O[C@H]1[C@@H](OC)C[C@H]2C [Compound C2-FK506]
KRASGTP/S39C lite; 1:2 molar ratio protein:compound, 37° C. 30 min then overnight room temperature, SDS-PAGE
  Cross-linking efficiency: cross-links efficiently
KRASGTP/S39C lite; SDS-PAGE after 100 mM DTT
  Cys specific attachment of the compound: specific for Cysteine 39

## CCC(C)(C)C(=O)C(=O)N1CCCC[C@H]1C(=O)OCCCC(=O)NCCSSc1ccccn1 [Compound C2Holt]
[1]
  Formation of ternary complex: confirm the formation

## CCC(C)(C)C(=O)C(=O)N1CCCC[C@H]1C(=O)O[C@H](CCc1ccc(OC)c(OC)c1)c1cccc(NC(=O)CCSSc2ccccn2)c1 [Compound C3SLF]
KRASGTP/G12C [2]
  Ligand cross-linking efficiency in presence vs absence of FKBP12: boosted significantly
[3]
  Formation of ternary complex: confirm the formation
KRASGTP/G12C [4]; FKBP12 + (10 μM)
  % xlink to KRAS: 47.5%
KRASGTP/G12C [4]; FKBP12 − (absent)
  % xlink to KRAS: 9.6%

## CCC(C)(C)C(=O)C(=O)N1CCCC[C@H]1C(=O)O[C@H](CCc1ccc(OC)c(OC)c1)c1cccc(NC(=O)CCCSSc2ccccn2)c1 [Compound C4SLF, (R)-3-(3,4-dimethoxyphenyl)-1-(3-(4-(pyridin-2-yldisulfanyl)butanamido)phenyl)propyl (S)-1-(3,3-dimethyl-2-oxopentanoyl)piperidine-2-carboxylate]
KRASGTP/G12C [2]
  Ligand cross-linking efficiency in presence vs absence of FKBP12: boosted significantly
KRASGTP/G12C [4]; FKBP12 + (10 μM)
  % xlink to KRAS: 69.8%
KRASGTP/G12C [4]; FKBP12 − (absent)
  % xlink to KRAS: 7.0%

## COC(=O)[C@@H]1CCCN(C(=O)[C@H](Cc2cccc(O)c2)NC(=O)[C@@H](NC(=O)CCCSSc2ccccn2)C(C)C)N1 [SFAC4DS]
[5]
  Formation of ternary complex: confirm the formation

## COC(=O)[C@@H]1CCCN(C(=O)[C@H](Cc2cccc(O)c2)NC(=O)[C@@H](NC(=O)CCOCCOCCSSc2ccccn2)C(C)C)N1 [SFAX9DS]
KRASGTP/G12C lite
  Cross-linking efficiency: cross-links efficiently
Wild-type CypA
  Cross-linking to presenter protein: also cross-linked
CypAC52S
  Cross-linking to presenter protein: does not cross-link
